Molecules are shown by their SMILES.

In assay [1] the target is T1, GSTd1 (Plutella xylostella, UniProt A0A8S4F7H5).
T1 construct: gene PLXY2_LOCUS7699; recombinant, pET-30a(+), E. coli BL21(DE3), Ni-NTA purified, about 25 kDa expected
T1 sequence (A0A8S4F7H5 1-243 limits assumed): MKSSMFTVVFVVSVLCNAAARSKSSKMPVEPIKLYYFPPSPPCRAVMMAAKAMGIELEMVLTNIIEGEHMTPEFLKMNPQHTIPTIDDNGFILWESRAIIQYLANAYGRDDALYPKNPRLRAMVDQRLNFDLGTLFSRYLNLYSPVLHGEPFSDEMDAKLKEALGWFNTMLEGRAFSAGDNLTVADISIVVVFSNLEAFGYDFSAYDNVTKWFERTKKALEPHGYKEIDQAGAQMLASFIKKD
Put plainly: CDNB-GSH conjugation, absorbance at […] nm. It is filed as biochemical. The settings on record: 1 mM GSH, 100 mM phosphate buffer, CDNB 0.05-1.6 mM.

Assay [2] deals with T2, GSTs1 (Plutella xylostella, UniProt Q6F443).
T2 construct: recombinant, pET-30a(+), E. coli BL21(DE3), Ni-NTA purified, about 25 kDa expected
T2 sequence (Q6F443 1-204): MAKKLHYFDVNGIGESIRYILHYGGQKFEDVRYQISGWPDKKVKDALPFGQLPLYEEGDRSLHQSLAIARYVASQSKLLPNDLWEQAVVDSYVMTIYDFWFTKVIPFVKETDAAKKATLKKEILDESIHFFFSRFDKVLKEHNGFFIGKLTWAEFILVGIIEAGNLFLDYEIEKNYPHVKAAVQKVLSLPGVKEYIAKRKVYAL
Kind of assay: CDNB-GSH conjugation, absorbance at […] nm. Format: biochemical. The settings on record: 1 mM GSH, 100 mM phosphate buffer, CDNB 0.05-1.6 mM.

Assay [3] deals with T3, GSTd2 (Plutella xylostella, UniProt X5CJR6).
T3 construct: recombinant, pET-30a(+), E. coli BL21(DE3), Ni-NTA purified, about 25 kDa expected
T3 sequence (X5CJR6 1-247): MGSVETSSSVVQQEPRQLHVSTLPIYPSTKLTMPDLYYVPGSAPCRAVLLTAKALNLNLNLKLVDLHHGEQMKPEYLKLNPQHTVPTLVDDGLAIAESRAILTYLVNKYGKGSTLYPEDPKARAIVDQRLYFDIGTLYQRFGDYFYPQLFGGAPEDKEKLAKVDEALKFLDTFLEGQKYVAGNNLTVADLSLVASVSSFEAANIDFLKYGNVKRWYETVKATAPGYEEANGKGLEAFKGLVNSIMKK
Put plainly: CDNB-GSH conjugation, absorbance at […] nm. Conditions: 1 mM GSH, 100 mM phosphate buffer, CDNB 0.05-1.6 mM. Format: biochemical.

The subject of another assay is T4, GSTd5.
T4 construct: recombinant, pET-30a(+), E. coli BL21(DE3), Ni-NTA purified, about 25 kDa expected
Kind of assay: CDNB-GSH conjugation, absorbance at […] nm. It is filed as biochemical, Plutella xylostella. The settings on record: 1 mM GSH, 100 mM phosphate buffer, CDNB 0.05-1.6 mM.

Another assay addresses T5, GSTd4 (Plutella xylostella, UniProt X5CCB0).
T5 construct: recombinant, pET-30a(+), E. coli BL21(DE3), Ni-NTA purified, about 25 kDa expected
T5 sequence (X5CCB0 1-219): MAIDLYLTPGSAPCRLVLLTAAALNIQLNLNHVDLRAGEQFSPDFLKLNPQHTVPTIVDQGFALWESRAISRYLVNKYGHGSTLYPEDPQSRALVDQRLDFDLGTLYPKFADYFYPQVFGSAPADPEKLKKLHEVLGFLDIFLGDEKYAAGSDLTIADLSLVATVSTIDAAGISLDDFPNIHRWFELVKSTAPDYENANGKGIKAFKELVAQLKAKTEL
Kind of assay: CDNB-GSH conjugation, absorbance at […] nm. Conditions: 1 mM GSH, 100 mM phosphate buffer, CDNB 0.05-1.6 mM. It is filed as biochemical.

In assay [4] the target is T6, GSTs2 (Plutella xylostella, UniProt Q6F436).
T6 construct: recombinant, pET-30a(+), E. coli BL21(DE3), Ni-NTA purified, about 25 kDa expected
T6 sequence (Q6F436 1-204): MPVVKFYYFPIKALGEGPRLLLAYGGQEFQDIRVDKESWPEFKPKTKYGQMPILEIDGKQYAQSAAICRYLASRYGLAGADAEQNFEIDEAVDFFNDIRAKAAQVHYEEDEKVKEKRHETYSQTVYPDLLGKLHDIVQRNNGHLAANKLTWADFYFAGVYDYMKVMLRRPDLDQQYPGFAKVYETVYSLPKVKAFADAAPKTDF
Kind of assay: CDNB-GSH conjugation, absorbance at […] nm. It is filed as biochemical. Conditions: 1 mM GSH, 100 mM phosphate buffer, CDNB 0.05-1.6 mM.

A further assay deals with T7, GSTd3 (Plutella xylostella, UniProt D7URW9).
T7 construct: gene PxGSTd; recombinant, pET-30a(+), E. coli BL21(DE3), Ni-NTA purified, about 25 kDa expected
T7 sequence (D7URW9 1-215): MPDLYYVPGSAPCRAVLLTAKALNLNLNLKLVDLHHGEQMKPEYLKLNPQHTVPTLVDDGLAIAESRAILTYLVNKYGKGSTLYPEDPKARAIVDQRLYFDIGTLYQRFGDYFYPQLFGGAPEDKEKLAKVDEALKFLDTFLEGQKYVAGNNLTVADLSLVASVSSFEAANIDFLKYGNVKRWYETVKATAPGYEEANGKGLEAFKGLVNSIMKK
Put plainly: CDNB-GSH conjugation, absorbance at […] nm. The settings on record: 1 mM GSH, 100 mM phosphate buffer, CDNB 0.05-1.6 mM. It is filed as biochemical.

Another assay deals with T8, GSTe5 (Plutella xylostella, UniProt X5CJR9).
T8 construct: recombinant, pET-30a(+), E. coli BL21(DE3), Ni-NTA purified, about 25 kDa expected
T8 sequence (X5CJR9 1-232): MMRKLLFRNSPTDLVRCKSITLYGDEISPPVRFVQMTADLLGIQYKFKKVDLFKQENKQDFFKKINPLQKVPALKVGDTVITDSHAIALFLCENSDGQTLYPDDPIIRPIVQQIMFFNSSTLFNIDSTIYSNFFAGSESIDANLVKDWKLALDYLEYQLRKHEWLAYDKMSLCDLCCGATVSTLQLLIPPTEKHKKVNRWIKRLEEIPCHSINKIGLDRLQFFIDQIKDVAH
Kind of assay: CDNB-GSH conjugation, absorbance at […] nm. Format: biochemical. Conditions: 1 mM GSH, 100 mM phosphate buffer, CDNB 0.05-1.6 mM.

A further assay deals with T9, GSTe4 (Plutella xylostella, UniProt X5D048).
T9 construct: recombinant, pET-30a(+), E. coli BL21(DE3), Ni-NTA purified, about 25 kDa expected
T9 sequence (X5D048 1-220): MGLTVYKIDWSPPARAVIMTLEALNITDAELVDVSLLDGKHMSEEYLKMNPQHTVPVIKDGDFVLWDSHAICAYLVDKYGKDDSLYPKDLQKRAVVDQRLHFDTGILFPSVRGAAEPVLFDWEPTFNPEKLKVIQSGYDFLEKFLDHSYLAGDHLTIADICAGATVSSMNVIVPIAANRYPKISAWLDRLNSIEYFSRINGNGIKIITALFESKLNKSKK
Put plainly: CDNB-GSH conjugation, absorbance at […] nm. It is filed as biochemical. Conditions: 1 mM GSH, 100 mM phosphate buffer, CDNB 0.05-1.6 mM.

Assay [5] addresses T1, GSTd1. Put plainly: inhibition of CDNB-GSH conjugation, absorbance at […] nm. Conditions: CDNB and GSH substrates, PBS, 10 min preincubation at 25 °C; competitive (authors' inference). It is filed as biochemical.
For assay [6], the target named is T2, GSTs1. Described as above. It is filed as biochemical. The settings on record: CDNB and GSH substrates, PBS, 10 min preincubation at 25 °C; competitive (authors' inference).
The target of assay [7] is T3, GSTd2. Described as above. Format: biochemical. Conditions: CDNB and GSH substrates, PBS, 10 min preincubation at 25 °C; competitive (authors' inference).
Assay [8] addresses T6, GSTs2. The assay is described as above. Format: biochemical. The settings on record: CDNB and GSH substrates, PBS, 10 min preincubation at 25 °C; competitive (authors' inference).

Usually Km stands for the concentration of substrate that gives half-maximal velocity. `O=[N+]([O-])c1ccc(Cl)c([N+](=O)[O-])c1` [1-chloro-2,4-dinitrobenzene]: the Km worked out at 691 µM on GSTd1 [1]; 684 µM on GSTs1 [2]; 682 µM at GSTd2 [3]; 546 µM in the assay with GSTd5; 1120 µM on GSTd4; 469 µM at GSTs2 [4]. For the same compound, the Km amounted to 1010 µM at GSTd3, 705 µM on GSTe5 and 413 µM at GSTe4.

With `CC12C(=O)OC(=O)C1C1CCC2O1` [(S)-(−)-palasonin], the “relative activity at 1 mM” value at GSTd1 [5] is recorded as 0.35 fraction of control; on GSTs1 [6], 0.26 fraction of control; on GSTd2 [7], 0.55 fraction of control; on GSTs2 [8], 0.51 fraction of control.

(Values after paper PMC9692725, “Glutathione S-Transferase May Contribute to the Detoxification of (S)-(−)-Palasonin in Plutella xylostella (L.) via Direct Metabolism” (Insects, 2022).)
